Source: BindingDB's records for doi:10.1016/j.bmcl.2003.11.081 (Cubist Pharmaceuticals, 2004)

Experiments:
[1] = biological target: T1, Phenylalanine--tRNA ligase, mitochondrial (Homo sapiens, UniProt O95363); assay: (§1) Inhibitory activity against human phenylalanyl-tRNA synthetase was determined
T1 sequence (O95363 whole entry): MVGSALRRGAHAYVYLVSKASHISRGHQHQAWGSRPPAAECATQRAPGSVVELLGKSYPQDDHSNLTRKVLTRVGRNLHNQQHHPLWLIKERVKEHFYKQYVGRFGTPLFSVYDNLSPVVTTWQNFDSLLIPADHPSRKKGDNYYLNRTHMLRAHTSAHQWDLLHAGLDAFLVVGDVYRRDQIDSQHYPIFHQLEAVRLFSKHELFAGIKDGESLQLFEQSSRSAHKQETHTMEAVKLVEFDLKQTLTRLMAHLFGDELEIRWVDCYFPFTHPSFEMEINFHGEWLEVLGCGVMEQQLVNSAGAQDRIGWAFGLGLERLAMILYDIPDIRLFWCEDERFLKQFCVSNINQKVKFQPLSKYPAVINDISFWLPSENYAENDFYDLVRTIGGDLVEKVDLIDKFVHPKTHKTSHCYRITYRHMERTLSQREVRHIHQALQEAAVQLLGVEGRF

[2] = biological target: Phenylalanine--tRNA ligase (Staphylococcus aureus); assay: Inhibitory activity against phenylalanyl-tRNA synthetase from Staphylococcus aureus
[3] = biological target: Phenylalanine--tRNA ligase (Enterococcus faecalis); assay: Inhibitory activity against phenylalanyl-tRNA synthetase from Enterococcus faecalis
[4] = biological target: T1, Phenylalanine--tRNA ligase, mitochondrial; assay: ChEBML_154873; experimental: as §1
[5] = biological target: Phenylalanine--tRNA ligase (Enterococcus faecalis); assay: Inhibitory activity against phenylalanyl-tRNA synthetase from Enterococcus faecalis; remark: listed apart in the source

IC50 [1] [µM] | IC50 [2] [µM] | IC50 [3] [µM] | IC50 [4] [µM] | IC50 [5] [µM] | Structure (SMILES)
> 100 | > 100 | > 100 | > 100 | > 100 | Oc1c2c(c(O)n1-c1ccc(Cl)c(Cl)c1)C1(Cc3ccccc3C1)NC2c1ccccc1 (stereo unspecified)
 |  | > 100 | > 100 | > 100 | COC(=O)C1NC(c2ccccc2)c2c1c(O)n(-c1ccc(Cl)c(Cl)c1)c2O [methyl 5-(3,4-dichlorophenyl)-4,6-dioxo-3-phenyl-(3R,3aS,6aR)-perhydropyrrolo[3,4-c]pyrrole-1-carboxylate]

The remaining lines, values behind:

Structure (SMILES) | IC50 [1] [µM] | IC50 [2] [µM] | IC50 [3] [µM] | IC50 [4] [µM] | IC50 [5] [µM]
O=C1c2ccccc2C(=O)C12OC(c1ccccc1)c1c2c(O)n(-c2ccc(Cl)c(C(F)(F)F)c2)c1O [5-(4-chloro-3-trifluoromethylphenyl)-3-phenyl-(3R,3aS,6aR)-spiro[perhydrofuro[3,4-c]pyrrole-1,2'-(2',3'-dihydro-1'H-indene)]-1',3',4,6-tetraone] |  | 45 | 32 |  | 
O=C1c2ccccc2C(=O)C12OC(c1ccccc1)c1c2c(O)n(-c2ccc([N+](=O)[O-])cc2)c1O [5-(4-nitrophenyl)-3-phenyl-(3R,3aS,6aR)-spiro[perhydrofuro[3,4-c]pyrrole-1,2'-(2',3'-dihydro-1'H-indene)]-1',3',4,6-tetraone] |  | > 100 | > 100 | > 100 | 
Cc1ccc(C2OC3(C(=O)c4ccccc4C3=O)c3c2c(O)n(-c2ccc4c(c2)OCO4)c3O)cc1 [5-benzo[d][1,3]dioxol-5-yl-3-(4-methylphenyl)-(3R,3aS,6aR)-spiro[perhydrofuro[3,4-c]pyrrole-1,2'-(2',3'-dihydro-1'H-indene)]-1',3',4,6-tetraone] |  |  | > 100 | > 100 | > 100
